“And” between values parts separate entries of the source, which are not always exact repeats. Equal values may be shown once. “Also recorded” adds a separate entry of the source. Where a name gives a salt, the structure may show the parent alone. Read-outs that look alike come from different tables or passages of the source.
What was measured:
[1] = test system: Huh7 cells expressing a subgenomic RNA replicon of Con1 (genotype 1b) sequence origin
influenza A/PR/8/34 = test system: influenza A/PR/8/34; parameters: species or system C57/BL6 mice; conditions: mouse, in vivo
in vitro = conditions: human
[2] = test system: Huh7 cells expressing a subgenomic RNA replicon of Con1 (genotype 1b) sequence origin; assay: microbe, parasite or virus in culture; conditions: Hepatitis C virus
NRI = NRI (Homo sapiens, UniProt P23975); type: binding
NRI, sequence (P23975 whole entry): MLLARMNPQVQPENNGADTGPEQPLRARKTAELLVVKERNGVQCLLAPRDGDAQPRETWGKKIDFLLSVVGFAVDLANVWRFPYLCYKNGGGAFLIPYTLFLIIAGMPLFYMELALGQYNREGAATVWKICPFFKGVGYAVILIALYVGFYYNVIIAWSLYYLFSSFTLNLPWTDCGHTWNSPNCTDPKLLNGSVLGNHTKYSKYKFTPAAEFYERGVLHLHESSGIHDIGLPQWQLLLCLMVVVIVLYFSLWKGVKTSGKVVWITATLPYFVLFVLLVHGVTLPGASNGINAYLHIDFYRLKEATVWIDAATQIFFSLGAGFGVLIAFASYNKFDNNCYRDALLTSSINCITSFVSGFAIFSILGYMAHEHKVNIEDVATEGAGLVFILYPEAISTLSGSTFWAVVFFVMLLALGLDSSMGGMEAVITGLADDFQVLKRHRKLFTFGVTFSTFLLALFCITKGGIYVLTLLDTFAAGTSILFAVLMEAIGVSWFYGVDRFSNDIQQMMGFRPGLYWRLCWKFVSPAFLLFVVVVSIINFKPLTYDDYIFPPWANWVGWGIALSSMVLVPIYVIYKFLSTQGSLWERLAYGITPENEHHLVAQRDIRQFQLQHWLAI

[3] = in vivo
SRI = SRI (Homo sapiens, UniProt P31645); assay: BBB/Neurotransmitter Binding: SRI
SRI, sequence (P31645 whole entry): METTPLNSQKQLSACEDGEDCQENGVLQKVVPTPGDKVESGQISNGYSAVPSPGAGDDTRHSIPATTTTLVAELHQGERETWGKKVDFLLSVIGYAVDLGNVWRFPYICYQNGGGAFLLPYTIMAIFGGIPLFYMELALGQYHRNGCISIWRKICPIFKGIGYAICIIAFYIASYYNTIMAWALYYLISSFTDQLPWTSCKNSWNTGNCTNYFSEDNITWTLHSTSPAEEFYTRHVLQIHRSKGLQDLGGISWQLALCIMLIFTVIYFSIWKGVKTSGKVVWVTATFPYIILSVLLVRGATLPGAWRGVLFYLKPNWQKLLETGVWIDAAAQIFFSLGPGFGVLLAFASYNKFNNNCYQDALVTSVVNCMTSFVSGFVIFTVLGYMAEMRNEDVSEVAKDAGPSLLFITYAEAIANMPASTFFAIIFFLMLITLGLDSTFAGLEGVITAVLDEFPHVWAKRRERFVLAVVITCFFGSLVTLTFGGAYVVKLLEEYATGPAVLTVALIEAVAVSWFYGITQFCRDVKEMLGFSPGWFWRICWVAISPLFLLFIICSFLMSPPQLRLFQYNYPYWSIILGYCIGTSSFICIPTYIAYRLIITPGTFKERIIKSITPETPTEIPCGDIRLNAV

HER1-2 = molecular target: T1, HER1-2 (Homo sapiens, UniProt P04626); conditions: selective HER1 inhibitor (vs. HER1-2); cited from earlier work
T1 construct: the other entry of the earlier key: EGFR (P00533, Epidermal growth factor receptor)
T1 sequence (P04626 with tags, fused parts or gaps): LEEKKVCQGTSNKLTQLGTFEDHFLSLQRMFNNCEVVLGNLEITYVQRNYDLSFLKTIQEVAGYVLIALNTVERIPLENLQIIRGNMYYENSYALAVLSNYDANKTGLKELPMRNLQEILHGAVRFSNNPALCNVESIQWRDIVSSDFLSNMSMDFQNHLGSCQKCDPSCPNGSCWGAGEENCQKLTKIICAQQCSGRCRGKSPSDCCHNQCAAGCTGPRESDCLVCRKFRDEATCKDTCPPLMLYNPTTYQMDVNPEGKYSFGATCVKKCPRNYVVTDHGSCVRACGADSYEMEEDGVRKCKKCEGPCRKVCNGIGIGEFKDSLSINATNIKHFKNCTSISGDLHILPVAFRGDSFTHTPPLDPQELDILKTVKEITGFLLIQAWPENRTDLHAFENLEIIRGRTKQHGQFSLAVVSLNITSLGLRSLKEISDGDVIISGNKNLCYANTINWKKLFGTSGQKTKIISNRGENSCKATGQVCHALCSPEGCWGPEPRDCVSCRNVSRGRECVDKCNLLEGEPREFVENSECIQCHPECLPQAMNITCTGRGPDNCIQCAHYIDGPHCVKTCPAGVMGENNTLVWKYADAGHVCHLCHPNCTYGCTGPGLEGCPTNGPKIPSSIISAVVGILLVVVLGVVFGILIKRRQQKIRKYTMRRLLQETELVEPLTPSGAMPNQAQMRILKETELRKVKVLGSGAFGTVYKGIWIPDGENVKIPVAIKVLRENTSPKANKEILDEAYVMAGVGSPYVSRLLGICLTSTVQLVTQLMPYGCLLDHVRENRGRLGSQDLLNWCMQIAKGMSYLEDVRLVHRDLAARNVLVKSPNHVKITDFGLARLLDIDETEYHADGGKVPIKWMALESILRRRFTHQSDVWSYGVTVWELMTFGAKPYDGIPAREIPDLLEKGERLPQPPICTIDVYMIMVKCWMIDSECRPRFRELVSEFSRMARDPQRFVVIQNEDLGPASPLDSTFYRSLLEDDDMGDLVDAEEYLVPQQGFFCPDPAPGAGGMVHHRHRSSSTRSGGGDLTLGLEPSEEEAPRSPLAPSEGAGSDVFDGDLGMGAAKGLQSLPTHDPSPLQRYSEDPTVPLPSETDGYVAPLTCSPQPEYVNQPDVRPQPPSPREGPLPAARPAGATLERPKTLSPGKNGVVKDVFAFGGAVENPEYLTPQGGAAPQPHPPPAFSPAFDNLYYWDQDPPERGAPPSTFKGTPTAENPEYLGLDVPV

[4] = general description; cited from earlier work
[5] = Huh-7, read-out: Max Effect @CC30 (inhibition)
[6] = Huh-7, read-out: Max effect @CC30 (%)
[7] = Huh-7, read-out: IC50 (uM) [SG]
[8] = Huh-7, read-out: Max Effect@CC30 (inhibition)
[9] = GETYPE1B, Huh-7, 72 h, read-out: Max Effect @CC30 (inhibition)
[10] = Huh-7, 48 h, read-out: Max Effect

Structure (SMILES) | Max Effect@CC30 (inhibition) [1] | CC50 (Huh7 parental cells) [µM] | IC90 [1] | CC50 (Huh7 parental cells; human) [µM] | CC50 (in vitro; CC50 (uM)) [µM] | IC90 ([2]; Huh-7) [µM] | Emax [2, 6] [%] | CC50 (in vitro; CC50 (uM) [SG]) [µM] | IC50 [2, 7] [µM] | Emax [2, 8] [%] | IC50 ([1]; read-out: IC50 (uM) [SG]) [µM] | also measured
CNC1CCC(c2cccc(OC)c2)c2ccccc21 (stereo not shown) [Sertraline B-ring m-Methoxy] | 27.70% | > 50 | – | – | – | – | – | – | – | – | – | –
CN[C@H]1CC[C@H](c2ccc(Cl)c(Cl)c2)c2ccccc21.Cl [(1S,4R) Sertraline Hydrochloride] | 50 ± 17.4% | 7.51 ± 0.8 | – | – | – | – | – | – | – | – | – | –
CN[C@H]1CC[C@@H](c2ccc(Cl)c(Cl)c2)c2ccccc21 [Sertraline, sertraline, reference compound] | 75.12% | – | 9.65 µM | 7.7 | 7.98 | 11.3 | 62.6 ± 21.5 | – | – | – | – | effect on survival rate (in words) (influenza A/PR/8/34): dose dependant increase in survival rate; also recorded: improves survival rate; Emax [2, 5]: 68.5%
CNC1CCC(c2ccccc2OC)c2ccccc21 (stereo not shown) [Sertraline B-Ring Ortho-Methoxy] | – | > 22.3 | – | – | – | – | – | – | – | – | – | Max Effect [1]: 24%; Synergy Score [1]: 0.81
CSc1ccc(Oc2ccc(Br)cc2CN(C)C)cc1C [Compound 9, (5-bromo-2-(3-methyl-4-(methylthio)phenoxy)phenyl)-N,N-dimethylmethanamine] | – | – | – | > 50 | – | – | – | 54.8 | 14.5 | 79 | – | –
Cl.N[C@H]1CC[C@@H](c2ccc(Cl)c(Cl)c2)c2ccccc21 [(1S,4S)-Desmethyl Sertraline, Hydrochloride] | – | 6.68 | – | – | – | – | – | – | – | – | – | IC50 [1]: 5.35 µM; Max Effect [1]: 98%; Synergy Score [1]: 2.14; TI (CC50/IC50) [1]: 1.247
CN(C)[C@H]1CC[C@@H](c2ccc(Cl)c(Cl)c2)c2ccc(C(N)=O)cc21 [(5S,8S)-5-(3,4-dichlorophenyl)-8-(dimethylamino)-5,6,7,8-tetrahydronaphthalene-2-carboxamide] | – | – | 8.73 µM | 23.7 | 20.7 | 8.77 ± 0.05 | – | 21.7 ± 1.44 | 2.62 ± 0.48 | 94.3 ± 0.7 | 3.18 | IC50 ([2]; Huh-7): 2.96 µM; Emax [2, 5]: 94.8%
CNCc1cc(S(N)(=O)=O)ccc1Oc1ccc(SC)c(C)c1 [Compound 48, 4-(3-methyl-4-(methylthio)phenoxy)-3-((methylamino)methyl)benzenesulfonamide] | – | – | 8.26 ± 2.49 µM | > 50 | 39.6 | 10 | 95.5 | 39.6 | 2.33 | 95.5 | 2.26 ± 0.11 | IC50 ([2]; Huh-7): 2.33 µM; IC50 ([2]; Huh-7, read-out: SA IC50 (uM)): 2.33 µM
CN(C)[C@H]1CC[C@@H](c2ccc(Cl)c(Cl)c2)c2ccc(C(=O)NC3CC3)cc21 [N,N-Dimethyl Sertraline A-Ring Reverse Cyclopropane Carboxam] [(5S,8S)—N-cyclopropyl-5-(3,4-dichlorophenyl)-8-(dimethylamino)-5,6,7,8-tetrahydronaphthalene-2-carboxamide] | – | – | – | 18.2 | – | – | – | – | – | – | 8.63 | –
CN[C@H]1CC[C@@H](c2ccc(Cl)c(Cl)c2)c2ccc(C(N)=O)cc21 [Sertraline A-ring carboxamide] | 94.5 ± 0.7% | 16.2 ± 0.57 | 5.4 ± 1.81 µM | – | – | – | – | – | – | – | 1.8 ± 0.18 | BBB/Neurotransmitter Binding (nM) NRI (NRI): 410 nM; Max effect @CC30 (%) [1]: 94.5 ± 0.7%; IC50 ([1]; read-out: SA IC50): 1.8 µM; Pharmcokinetics: Brain levels compared with sertraline [3]: IC50, Brain levels lower; Pharmcokinetics: overall assessment [3]: Optimal PK. Liver
CN[C@H]1CC[C@@H](c2ccc(Cl)c(Cl)c2)c2ccccc21.Cl [(1R,4S) Sertraline Hydrochloride] | 90.8 ± 1.6% | 14.2 ± 0.16 | – | – | – | – | – | – | – | – | – | IC90 ([1]; Hydrochloride): 12.1 ± 0.83 µM
CN[C@H]1CC[C@@H](c2ccc(Cl)c(Cl)c2)c2ccc(C[S+](C)[O-])cc21 (stereo partly drawn) [(1S,4S)-4-(3,4-dichlorophenyl)-N-methyl-7-(methylsulfinylmethyl)-1,2,3,4-tetrahydronaphthalen-1-amine] | – | – | 5.17 µM and 5.15 µM | 15.3 | – | 5.13 ± 0.16 | 97.9 ± 1.1 | 14.8 ± 0.97 | 1.34 ± 0.26 | 96.5 ± 2.6 | 1.55 | BBB/Neurotransmitter Binding (nM) SRI (SRI): 340 nM; BBB/Neurotransmitter Binding (nM) NRI (NRI): 450 nM; IC50 ([2]; Huh-7, read-out: SA IC50 (uM)): 1.46 ± 0.23 µM
CN[C@H]1CC[C@@H](c2ccc(Cl)c(Cl)c2)c2ccc(CN)cc21 [Sertraline A-Ring Methanamine, (1S,4S)-7-(aminomethyl)-4-(3,4-dichlorophenyl)-N-methyl-1,2,3,4-tetrahydronaphthalen-1-amine] | – | – | – | 3.68 | 3.7 | 3.28 | 85.9 | 3.7 | 1.59 | 85.9 | 1.67 | IC50 ([2]; Huh-7): 1.6 µM; Emax [2, 5]: 85.9%; IC50 ([2]; Huh-7, read-out: SA IC50 (uM)): 1.59 µM
CNC1CCC(c2cccs2)c2ccccc21 (stereo not shown) [Sertraline B-ring 2-Thiophene] | 42% | 88.5 | – | – | – | – | – | – | – | – | 52.3 | –
CSc1ccc(Oc2ccc(S(N)(=O)=O)cc2CN(C)C)cc1C [UK-416244, 3-((dimethylamino)methyl)-4-(3-methyl-4-(methylthio)phenoxy)benzenesulfonamide, reference compound] | – | – | 6.55 µM | – | 327 | 6.17 ± 3.23 | 97.2 ± 1.4 | > 50 | 1.41 ± 0.2 | 97.2 ± 1.4 | 1.74 | BBB/Neurotransmitter Binding (nM) SRI (SRI; Table 19): <5 nM; Pharmcokinetics: Brain levels compared with sertraline [3]: lower than sertraline; Pharmcokinetics: Liver levels, fold over IC50 [3]: sertraline, 511 fold over; Pharmcokinetics: overall assessment [3]: Optimal PK, Liver; Emax [2, 9]: 97%; IC50 ([2]; Huh-7): 1.41 µM; IC50 ([2]; Huh-7, 72 h): 1.63 µM; IC90 ([2]; Huh-7, 72 h): 9.86 µM; IC50 ([2]; Huh-7, read-out: SA IC50 (uM)): 1.41 ± 0.2 µM
N#C/C(=C\c1ccc(O)c(O)c1)C(=O)Nc1ccccc1 [AG-494, AG 494, reference compound] | – | – | – | – | – | – | – | – | – | – | – | IC50 [1]: 3.45 µM; IC50 (HER1-2): 45 µM
CC(=O)OC[C@H]1O[C@@H]([S-])[C@H](OC(C)=O)[C@@H](OC(C)=O)[C@@H]1OC(C)=O.CCP(CC)CC.[Au+] [Auranofin, reference compound] | – | – | – | – | – | – | – | – | – | – | – | IC50 [1]: 1.07 µM; solubility in water (in words) [4]: insoluble in water
CNC1CCC(c2ccccc2OC)c2ccccc21 (stereo not shown) [Sertraline B-ring Ortho Methoxy, 4-(2-methoxyphenyl)-N-methyl-1,2,3,4-tetrahydronaphthalen-1-amine] | – | – | – | > 50 | 58.6 | – | – | 58.6 | – | – | – | –
CN[C@H]1CC[C@@H](c2ccc(Cl)c(Cl)c2)c2ccccc21 [Sertraline HCL, Sertraline HCl, reference compound] | – | – | – | 11.3 | – | – | – | 11.7 ± 2.03 | – | 62.6 ± 21.5 | – | CC50 at 72 h (in vitro; CC50 (uM)): 11.8 ± 2.09 µM; Emax [2, 9]: 62 ± 11.2%
CN[C@H]1CC[C@@H](c2ccc(Cl)c(Cl)c2)c2ccc(CS(C)(=O)=O)cc21 [(1S,4S)-4-(3,4-dichlorophenyl)-N-methyl-7-(methylsulfonylmethyl)-1,2,3,4-tetrahydronaphthalen-1-amine] | – | – | – | 14.2 | 13 | 7.89 | 84.8 | 13 | 1.68 | 84.8 | 2.33 | IC50 ([2]; Huh-7): 1.68 µM; IC50 ([2]; Huh-7, read-out: SA IC50 (uM)): 1.68 µM
CNC1CCC(c2ccc(C(F)(F)F)cc2)c2ccccc21 (stereo not shown) [Sertraline B-Ring para-Trifluoromethane, N-methyl-4-(4-(trifluoromethyl)phenyl)-1,2,3,4-tetrahydronaphthalen-1-amine] | – | – | – | – | 14.2 | – | – | 14.2 | 13.4 | 0 | – | Synergy Score [1]: 1.93; TI (CC50/IC50) [1]: 1.299; CC50 (in vitro; CC50): 15.9 µM; Emax [2, 9]: 0%; IC50 ([2]; Huh-7, 48 h): 12.2 µM; Emax [2, 10]: 99%; IC50 ([2]; Huh-7, 72 h): 13.4 µM
CN[C@H]1CC[C@@H](c2ccc(Cl)c(Cl)c2)c2ccc(NS(C)(=O)=O)cc21 [Sertraline (Reverse) Methanesulfonamide, N-((5S,8S)-5-(3,4-dichlorophenyl)-8-(methylamino)-5,6,7,8-tetrahydronaphthalen-2-yl)methanesulfonamide] | – | – | – | – | 12.9 ± 0.3 | – | 83.3 ± 20.2 | 12.9 ± 0.3 | 3.99 ± 0.8 | 83.3 ± 20.2 | – | BBB/Neurotransmitter Binding (nM) NRI (NRI): 60 nM; CC50 (in vitro; CC50): 12.9 µM; Pharmcokinetics: Brain levels compared with sertraline [3]: lower sertraline; Pharmcokinetics: Liver levels compared with sertraline [3]: much greater; Pharmcokinetics: overall assessment [3]: Optimal PK, Liver levels; Emax [2, 9]: 83.3 ± 20.2%; IC50 ([2]; Huh-7, 48 h): 6.43 µM; Emax [2, 10]: 95%; IC50 ([2]; Huh-7, 72 h): 3.99 ± 0.8 µM; IC50 ([2]; Huh-7, read-out: SA IC50 (uM)): 3.99 ± 0.8 µM
COC1CC[C@@H](c2ccc(Cl)c(Cl)c2)c2ccccc21 (stereo partly drawn) [Methoxy 4S-Sertraline] | 93.98% and 47.76% | – | 46.1 µM and 46.9 µM | – | > 50 | – | – | – | – | – | – | IC50 [1]: 26.4 µM; IC50 ([2]; Huh-7): 22.7 µM
